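Step 1: Grow cells in 96-well plates. Step 2: Expose to compound for 48 hours at 5 concentrations. Step 3: Interpolate endpoints linearly; if unreached, use highest concentration. The concentration for 50% growth inhibition is given as GI50. The concentration for full growth arrest is given as TGI.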
Experiments:
Assay in all cases: DTP human tumour cell line panel, 48 h
786-0 renal = test system: 786-0 renal
A498 renal = test system: A498 renal
A549 NSCLC = test system: A549 NSCLC
ACHN renal = test system: ACHN renal
BT-549 breast = test system: BT-549 breast
CAKI-1 renal = test system: CAKI-1 renal
CCRF-CEM leukemia = test system: CCRF-CEM leukemia
COLO 205 colon = test system: COLO 205 colon
DU-145 prostate = test system: DU-145 prostate
EKVX NSCLC = test system: EKVX NSCLC
HCC-2998 colon = test system: HCC-2998 colon
HCT-116 colon = test system: HCT-116 colon
HCT-15 colon = test system: HCT-15 colon
HL-60(TB) leukemia = test system: HL-60(TB) leukemia
HOP-62 NSCLC = test system: HOP-62 NSCLC
HOP-92 NSCLC = test system: HOP-92 NSCLC
HS 578T breast = test system: HS 578T breast
HT29 colon = test system: HT29 colon
IGROV1 ovarian = test system: IGROV1 ovarian
K-562 leukemia = test system: K-562 leukemia
KM12 colon = test system: KM12 colon
LOX IMVI melanoma = test system: LOX IMVI melanoma
M14 melanoma = test system: M14 melanoma
MALME-3M melanoma = test system: MALME-3M melanoma
MCF7 breast = test system: MCF7 breast
MDA-MB-231 breast = test system: MDA-MB-231 breast
MDA-MB-435 = test system: MDA-MB-435
MDA-MB-468 breast = test system: MDA-MB-468 breast
MOLT-4 leukemia = test system: MOLT-4 leukemia
NCI-H226 lung = test system: NCI-H226 lung
NCI-H23 lung = test system: NCI-H23 lung
NCI-H460 lung = test system: NCI-H460 lung
NCI-H522 lung = test system: NCI-H522 lung
OVCAR-3 ovarian = test system: OVCAR-3 ovarian
OVCAR-4 ovarian = test system: OVCAR-4 ovarian
OVCAR-5 ovarian = test system: OVCAR-5 ovarian
OVCAR-8 ovarian = test system: OVCAR-8 ovarian
PC-3 prostate = test system: PC-3 prostate
RPMI-8226 leukemia = test system: RPMI-8226 leukemia
RXF 393 renal = test system: RXF 393 renal
SF-268 CNS = test system: SF-268 CNS
SF-295 CNS = test system: SF-295 CNS
SF-539 CNS = test system: SF-539 CNS
SK-MEL-2 melanoma = test system: SK-MEL-2 melanoma
SK-MEL-28 melanoma = test system: SK-MEL-28 melanoma
SK-MEL-5 melanoma = test system: SK-MEL-5 melanoma
SK-OV-3 ovarian = test system: SK-OV-3 ovarian
SN12C renal = test system: SN12C renal
SNB-19 CNS = test system: SNB-19 CNS
SNB-75 CNS = test system: SNB-75 CNS
SR leukemia = test system: SR leukemia
SW-620 colon = test system: SW-620 colon
T-47D breast = test system: T-47D breast
TK-10 renal = test system: TK-10 renal
U251 CNS = test system: U251 CNS
UACC-257 melanoma = test system: UACC-257 melanoma
UACC-62 melanoma = test system: UACC-62 melanoma
UO-31 renal = test system: UO-31 renal

Question: Which GI50 (786-0 renal) does the source give for `CC1=C(COCCOC(=O)c2ccc(S(=O)(=O)F)cc2)C2=C(C)C3(CC3)[C@@](C)(O)C(=O)C2=C1` here?
Answer: 19 µM

Question: What about the TGI (786-0 renal) of the same molecule?
Answer: 42.3 µM

Question: What about the GI50 (A498 renal) of the same molecule?
Answer: 18.6 µM

Question: What about the TGI (A498 renal) of the same molecule?
Answer: 43.7 µM

Question: What about the GI50 (A549 NSCLC) of the same molecule?
Answer: 25.9 µM

Question: What about the TGI (A549 NSCLC) of the same molecule?
Answer: 80.8 µM

Question: And the GI50 (ACHN renal)?
Answer: 21.7 µM

Question: What about the TGI (ACHN renal) of the same molecule?
Answer: 49.9 µM

Question: And the GI50 (BT-549 breast)?
Answer: 14.9 µM

Question: And the TGI (BT-549 breast)?
Answer: 32.2 µM

Question: And the GI50 (CAKI-1 renal)?
Answer: 16 µM

Question: What about the TGI (CAKI-1 renal) of the same molecule?
Answer: 32.5 µM

Question: And the GI50 (CCRF-CEM leukemia)?
Answer: 21.4 µM

Question: What about the TGI (CCRF-CEM leukemia) of the same molecule?
Answer: 52.3 µM

Question: And the GI50 (COLO 205 colon)?
Answer: 19.6 µM

Question: And the TGI (COLO 205 colon)?
Answer: 37.2 µM

Question: And the GI50 (DU-145 prostate)?
Answer: 24.1 µM

Question: And the TGI (DU-145 prostate)?
Answer: 57.2 µM

Question: What about the GI50 (EKVX NSCLC) of the same molecule?
Answer: 17.5 µM

Question: And the TGI (EKVX NSCLC)?
Answer: 33.8 µM

Question: And the GI50 (HCC-2998 colon)?
Answer: 18.5 µM

Question: What about the TGI (HCC-2998 colon) of the same molecule?
Answer: 33.6 µM

Question: And the GI50 (HCT-116 colon)?
Answer: 16.7 µM

Question: What about the TGI (HCT-116 colon) of the same molecule?
Answer: 32.4 µM

Question: And the GI50 (HCT-15 colon)?
Answer: 20.8 µM

Question: And the TGI (HCT-15 colon)?
Answer: 43.1 µM

Question: What about the GI50 (HL-60(TB) leukemia) of the same molecule?
Answer: 24.3 µM

Question: What about the TGI (HL-60(TB) leukemia) of the same molecule?
Answer: 55.1 µM

Question: What about the GI50 (HOP-62 NSCLC) of the same molecule?
Answer: 21.6 µM

Question: And the TGI (HOP-62 NSCLC)?
Answer: 58.2 µM

Question: What about the GI50 (HOP-92 NSCLC) of the same molecule?
Answer: 16.6 µM

Question: What about the TGI (HOP-92 NSCLC) of the same molecule?
Answer: 42.2 µM

Question: And the GI50 (HS 578T breast)?
Answer: 25.4 µM

Question: What about the TGI (HS 578T breast) of the same molecule?
Answer: 99.6 µM

Question: What about the GI50 (HT29 colon) of the same molecule?
Answer: 18.4 µM

Question: And the TGI (HT29 colon)?
Answer: 35.9 µM

Question: What about the GI50 (IGROV1 ovarian) of the same molecule?
Answer: 17 µM

Question: And the TGI (IGROV1 ovarian)?
Answer: 32.4 µM

Question: And the GI50 (K-562 leukemia)?
Answer: 25.8 µM

Question: And the TGI (K-562 leukemia)?
Answer: 58.5 µM

Question: What about the GI50 (KM12 colon) of the same molecule?
Answer: 23.6 µM

Question: And the TGI (KM12 colon)?
Answer: 53.8 µM

Question: And the GI50 (LOX IMVI melanoma)?
Answer: 17.8 µM

Question: And the TGI (LOX IMVI melanoma)?
Answer: 34.6 µM

Question: And the GI50 (M14 melanoma)?
Answer: 18.9 µM

Question: What about the TGI (M14 melanoma) of the same molecule?
Answer: 36.9 µM

Question: What about the GI50 (MALME-3M melanoma) of the same molecule?
Answer: 16 µM

Question: And the TGI (MALME-3M melanoma)?
Answer: 30.8 µM

Question: And the GI50 (MCF7 breast)?
Answer: 27 µM

Question: And the TGI (MCF7 breast)?
Answer: 91.2 µM

Question: What about the GI50 (MDA-MB-231 breast) of the same molecule?
Answer: 17.7 µM

Question: And the TGI (MDA-MB-231 breast)?
Answer: 34.2 µM

Question: What about the GI50 (MDA-MB-435) of the same molecule?
Answer: 22.2 µM

Question: And the TGI (MDA-MB-435)?
Answer: 52.2 µM

Question: What about the GI50 (MDA-MB-468 breast) of the same molecule?
Answer: 18.7 µM

Question: What about the TGI (MDA-MB-468 breast) of the same molecule?
Answer: 40.1 µM

Question: What about the GI50 (MOLT-4 leukemia) of the same molecule?
Answer: 26.3 µM

Question: What about the TGI (MOLT-4 leukemia) of the same molecule?
Answer: 72.3 µM

Question: And the GI50 (NCI-H226 lung)?
Answer: 27.9 µM

Question: And the TGI (NCI-H226 lung)?
Answer: 85.7 µM

Question: What about the GI50 (NCI-H23 lung) of the same molecule?
Answer: 19.4 µM

Question: What about the TGI (NCI-H23 lung) of the same molecule?
Answer: 37.5 µM

Question: And the GI50 (NCI-H460 lung)?
Answer: 21.6 µM

Question: What about the TGI (NCI-H460 lung) of the same molecule?
Answer: 45.8 µM

Question: What about the GI50 (NCI-H522 lung) of the same molecule?
Answer: 16 µM

Question: What about the TGI (NCI-H522 lung) of the same molecule?
Answer: 30.9 µM

Question: What about the GI50 (OVCAR-3 ovarian) of the same molecule?
Answer: 18.4 µM

Question: And the TGI (OVCAR-3 ovarian)?
Answer: 34.7 µM

Question: What about the GI50 (OVCAR-4 ovarian) of the same molecule?
Answer: 20.1 µM

Question: What about the TGI (OVCAR-4 ovarian) of the same molecule?
Answer: 48.4 µM

Question: What about the GI50 (OVCAR-5 ovarian) of the same molecule?
Answer: 18.1 µM

Question: And the TGI (OVCAR-5 ovarian)?
Answer: 36.6 µM

Question: What about the GI50 (OVCAR-8 ovarian) of the same molecule?
Answer: 18.9 µM

Question: And the TGI (OVCAR-8 ovarian)?
Answer: 40.1 µM

Question: And the GI50 (PC-3 prostate)?
Answer: 19.8 µM

Question: What about the TGI (PC-3 prostate) of the same molecule?
Answer: 51.3 µM

Question: What about the GI50 (RPMI-8226 leukemia) of the same molecule?
Answer: 26 µM

Question: And the TGI (RPMI-8226 leukemia)?
Answer: 69.4 µM

Question: What about the GI50 (RXF 393 renal) of the same molecule?
Answer: 17.5 µM

Question: What about the TGI (RXF 393 renal) of the same molecule?
Answer: 34.8 µM

Question: And the GI50 (SF-268 CNS)?
Answer: 26 µM

Question: And the TGI (SF-268 CNS)?
Answer: 77.6 µM

Question: What about the GI50 (SF-295 CNS) of the same molecule?
Answer: 22.1 µM

Question: And the TGI (SF-295 CNS)?
Answer: 51.6 µM

Question: And the GI50 (SF-539 CNS)?
Answer: 17.7 µM

Question: What about the TGI (SF-539 CNS) of the same molecule?
Answer: 33.9 µM

Question: And the GI50 (SK-MEL-2 melanoma)?
Answer: 17.9 µM

Question: What about the TGI (SK-MEL-2 melanoma) of the same molecule?
Answer: 35.3 µM

Question: And the GI50 (SK-MEL-28 melanoma)?
Answer: 16.2 µM

Question: What about the TGI (SK-MEL-28 melanoma) of the same molecule?
Answer: 30.1 µM

Question: What about the GI50 (SK-MEL-5 melanoma) of the same molecule?
Answer: 20 µM

Question: And the TGI (SK-MEL-5 melanoma)?
Answer: 39.5 µM

Question: And the GI50 (SK-OV-3 ovarian)?
Answer: 18.6 µM

Question: And the TGI (SK-OV-3 ovarian)?
Answer: 39.5 µM

Question: And the GI50 (SN12C renal)?
Answer: 16.6 µM

Question: And the TGI (SN12C renal)?
Answer: 30.4 µM

Question: And the GI50 (SNB-19 CNS)?
Answer: 17 µM

Question: And the TGI (SNB-19 CNS)?
Answer: 32.5 µM

Question: What about the GI50 (SNB-75 CNS) of the same molecule?
Answer: 16.3 µM

Question: What about the TGI (SNB-75 CNS) of the same molecule?
Answer: 49.7 µM

Question: What about the GI50 (SR leukemia) of the same molecule?
Answer: 22.5 µM

Question: And the TGI (SR leukemia)?
Answer: 56.2 µM

Question: And the GI50 (SW-620 colon)?
Answer: 17.5 µM

Question: And the TGI (SW-620 colon)?
Answer: 33.9 µM

Question: And the GI50 (T-47D breast)?
Answer: 17.7 µM

Question: And the TGI (T-47D breast)?
Answer: 40 µM

Question: What about the GI50 (TK-10 renal) of the same molecule?
Answer: 19.6 µM

Question: And the TGI (TK-10 renal)?
Answer: 45.3 µM

Question: What about the GI50 (U251 CNS) of the same molecule?
Answer: 18.1 µM

Question: And the TGI (U251 CNS)?
Answer: 37.3 µM

Question: And the GI50 (UACC-257 melanoma)?
Answer: 17.7 µM

Question: What about the TGI (UACC-257 melanoma) of the same molecule?
Answer: 38.3 µM

Question: What about the GI50 (UACC-62 melanoma) of the same molecule?
Answer: 16.2 µM

Question: And the TGI (UACC-62 melanoma)?
Answer: 30.2 µM

Question: What about the GI50 (UO-31 renal) of the same molecule?
Answer: 17 µM

Question: What about the TGI (UO-31 renal) of the same molecule?
Answer: 44.8 µM

Source: PubChem BioAssay (NCI)
